Data published in patent US6355619B1, “Peptide tumor cell growth inhibitors” (Board of Regents, The University of Texas System, priority 1996, dated 2002).

Columns and labels:
[1] = biological target: T1, GRO binding to human neutrophils (Homo sapiens, UniProt P25025); assay: Binding of radioiodinated GRO/MGSA to human neutrophils; conditions: 1 nM GRO
T1 construct: endogenous in cells; host or cells: human neutrophils
Method: FIG. 10. Ac-RRWWCX (SEQ ID NO:23) Inhibits Binding of GRO and MIP2β to human neutrophils. Radioiodinated MIP2β and GRO/MGSA were mixed with various concentration of Ac-RRWWCR-NH2 and incubated at room temperature for 15 min. Neutrophil suspension (1×10^6 cells in 160 μl PBS containing 0.1% BSA) was added to 40 μl of the mixture and incubated for 90 min on ice. The radioactivity bound to the cells was separated from free radioactivity by centrifugation through an oil layer. The % binding inhibition was calculated as follows: [formula]
MIP2β and GRO/MGSA were radioiodinated using Bolten Hunter reagent. The radioiodinated components were mixed with various concentration of the Ac-RRWWCX-NH2 (SEQ ID NO:23) peptide and incubated at room temperature for 15 min. Neutrophil suspension (1×10^6 cells in 160 μl PBS containing 0.1% BSA) was added to 40 μl of the mixture and incubated for 90 min on ice. The radioactivity bound to the cells was separated from free radioactivity by centrifugation through an oil layer. The bound radioactivity is an indication of bound CXC intercrine peptide. The % binding inhibition in the presence of Ac-RRWWCX-NH2 (SEQ ID NO:23) was calculated as follows: [formula]
where B is bound radioactivity in the presence of the peptide, T is bound radioactivity in the absence of the peptide, and NSP is bound radioactivity in the presence of excess nonlabeled ligand.

[2] = test system: fMLP-stimulated neutrophil enzyme release; assay: β-glucuronidase release from neutrophils stimulated by fMLP; type: cell-based, human; conditions: 100 nM fMLP
Method: (§1) FIG. 8. The Effect of Ac-RRWWCR-NH2 (SEQ ID NO:1) on β-glucuronidase Release. Neutrophils pretreated with cytochalasin B were incubated with 100 nM IL-8 (●), 100 nM fMLP (▪), 100 nM C5a (_) or 100 nM leukotriene B4 ? or without any stimulant (◯) in the presence of increasing concentration of Ac-RRWWCR-NH2 (SEQ ID NO:1) for 30 min at 37° C. β-glucuronidase activity of supernatants were measured using phenolphthalein-glucuronic acid as substrate. Analysis of variance was used for multiple comparison.
(§2) Neutrophil enzyme release was studied by a modification of the method of Goldstein and colleagues (Goldstein et al., 1973). Cytochalasin B (Sigma Chemical Co.) was stored in dimethyl sulfoxide at a concentration of 5 mg/ml and was diluted to a concentration of 50 μg/ml in Hank's Balanced Salt Solution (HBSS) immediately before use. Cytochalasin B, 200 μl, was added to 1 ml of suspension of neutrophils, 6.25×10^6 cells/ml in HBSS, to achieve a final cytochalasin B concentration of […]. The solution was then incubated in 96 well plates at room temperature for 10 min. The stimulant, 100 μl, was added, and this cell suspension was incubated for 30 min at 37° C. The plates were centrifuged and 100 μl of supernatant was removed. […] After 16 hr incubation at 37° C., 200 μl of 0.2 M Glycine in 0.2 M NaCl, pH10.4 was added to each well and OD540 was measured as the enzyme activity.

neutrophils = assay: β-glucuronidase release from neutrophils without stimulant; type: cell-based, human; conditions: without any stimulant
Method: as §1, §2

[3] = test system: MGSA/GROα receptors on RPMI-7951 melanoma cells; assay: Binding of 125I-MGSA/GROα to RPMI-7951 melanoma cells; conditions: RPMI-7951, 1 nM 125I-labeled MGSA/GROα; read-out: EC50, inhibition of MGSA/GROα binding
Method: FIG. 11A. The binding of ^125I-labeled MGSA/GROα to melanoma cell lines, Hs 294T and RPMI-7951. The melanoma cells, 1×10^5, were incubated with 1 nM ^125I-MGSA/GROα in the presence of various concentrations of unlabeled MGSA/GROα. Binding inhibition curve with Hs 294T (closed circles) and RPMI-7951 (open circles). The lines shown in the graph are the best fit curves calculated using the London II computer program.
FIG. 13. The effect of Antileukinate on the binding of radiolabeled MGSA/GROα to the melanoma cell lines. The melanoma cells, Hs 294T (closed circles) and RPMI-7951 (open circles), were incubated with 1 nM ^125I-MGSA/GROα in the presence of different concentrations of Antileukinate. The lines shown in the graph are the best fit curves calculated using the London II computer program.
Recombinant human MGSA/GROα and IL-8 were purchased form Pepro Tech Inc. (Rocky Hill, N.J.) and radioactively labeled using ^125I-labeled Bolton-Hunter reagent (DuPont-NEN, Wilmington, Del.) (Bolton and Hunter, 1973). The labeled proteins were isolated using Sephadex G-25 column (Column PD-10, Pharmacia) pre-equilibrated with PBS containing 0.1% gelatin and stored at −70° C. after the addition of 1% bovine serum albumin.
Binding studies with melanoma cell lines were performed by the method of Horuk and colleagues (Horuk et al., 1993). Briefly, the cells (1×10^5 cells/well) in 24-well plates were washed two times with Hank's Balanced Salt Solution and incubated with ^125I-labeled MGSA/GROα or IL-8 in the buffer containing 1% bovine serum albumin at 4° C. for 3 hr. The incubation was terminated by vacuum aspiration of the supernatant. The cells were washed three times in binding buffer, solubilized by the addition of 200 μl of 1% SDS, and transferred to vials for counting. The non-specific binding was estimated by measuring the binding in the presence of 100-fold excess of non-labeled ligand. The binding parameters were calculated using the Lundon II computer program (Lundon Software Inc., Chagrin Falls, Ohio).

[4] = test system: DU145 (adenocarcinoma of prostate); assay: Growth of DU145, MTT assay; type: cell-based; conditions: DU145, serum-starved, 24 hours
Method: FIG. 18. The effect of Antileukinate on growth of DU145 (adenocarcinoma of prostate) cell line. Serum-starved DU145 were incubated with the indicated concentrations of Antileukinate for 24 hours. MTT assay was then performed. Cell umber was decreased in a dose-dependent manner and there are significant differences from controls at concentrations greater than, or equal to 100 μM of Antileukinate (p<0.05).

C8161 melanoma cells = assay: Tumor cell growth, C8161; type: cell-based
WM115 melanoma cells = assay: Tumor cell growth, WM115; type: cell-based
[5] = test system: adenocarcinoma from stomach Hs746T; assay: Tumor cell growth, Hs746T; type: cell-based

T1 sequence (P25025 whole entry): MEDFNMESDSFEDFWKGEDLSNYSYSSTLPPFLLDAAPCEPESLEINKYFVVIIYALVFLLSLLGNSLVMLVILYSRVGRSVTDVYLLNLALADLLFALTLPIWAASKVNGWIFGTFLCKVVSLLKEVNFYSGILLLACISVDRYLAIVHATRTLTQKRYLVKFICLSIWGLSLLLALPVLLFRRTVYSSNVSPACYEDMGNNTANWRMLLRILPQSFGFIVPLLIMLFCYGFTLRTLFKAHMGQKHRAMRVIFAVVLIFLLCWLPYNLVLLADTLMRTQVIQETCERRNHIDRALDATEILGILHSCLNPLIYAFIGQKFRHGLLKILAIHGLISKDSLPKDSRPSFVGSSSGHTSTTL

With RRWWCR [Ac-RRWWCR-NH2] the “effect on binding of GRO to neutrophils” value [1] was “effectively suppress the binding”, the “effect on enzyme release stimulated by fMLP” value [2] was “did not affect the enzyme release” and the “stimulation of β-glucuronidase release by the peptide itself” value (neutrophils) was “did not stimulate β-glucuronidase release”. For the same substance, the EC50 [3] was ~1000 nM, the “concentrations with significant difference in cell number from controls (p<0.05)” value [4] was ≥ 100 µM and the “effect on cell growth” value (C8161 melanoma cells) was “suppresses the growth”. For the same substance, the “effect on cell growth” value (WM115 melanoma cells) was “suppresses the growth” and the “effect on cell growth” value [5] was “inhibits growth”.
